Source: patent US20250002471A1 (Gilead Sciences, Inc., priority 2020, published 2025)

What was measured:
TLR9 = target: T1, TLR9 (Homo sapiens, UniProt Q9NR96); test: Human PBMC cell-based assay, TLR9 agonist ODN-2216 stimulation, cytokine (IL-6 and IFNα) readout; conditions: human PBMCs, ODN-2216 3 μM, 6 hours; Table 26; read-out: TLR-9 EC50
T1 construct: lymphocytes, monocytes and dendritic cells that express TLR7, TLR8 and TLR9; endogenous in cells; host or cells: human PBMCs from healthy donors
T1 sequence (Q9NR96 26-1032): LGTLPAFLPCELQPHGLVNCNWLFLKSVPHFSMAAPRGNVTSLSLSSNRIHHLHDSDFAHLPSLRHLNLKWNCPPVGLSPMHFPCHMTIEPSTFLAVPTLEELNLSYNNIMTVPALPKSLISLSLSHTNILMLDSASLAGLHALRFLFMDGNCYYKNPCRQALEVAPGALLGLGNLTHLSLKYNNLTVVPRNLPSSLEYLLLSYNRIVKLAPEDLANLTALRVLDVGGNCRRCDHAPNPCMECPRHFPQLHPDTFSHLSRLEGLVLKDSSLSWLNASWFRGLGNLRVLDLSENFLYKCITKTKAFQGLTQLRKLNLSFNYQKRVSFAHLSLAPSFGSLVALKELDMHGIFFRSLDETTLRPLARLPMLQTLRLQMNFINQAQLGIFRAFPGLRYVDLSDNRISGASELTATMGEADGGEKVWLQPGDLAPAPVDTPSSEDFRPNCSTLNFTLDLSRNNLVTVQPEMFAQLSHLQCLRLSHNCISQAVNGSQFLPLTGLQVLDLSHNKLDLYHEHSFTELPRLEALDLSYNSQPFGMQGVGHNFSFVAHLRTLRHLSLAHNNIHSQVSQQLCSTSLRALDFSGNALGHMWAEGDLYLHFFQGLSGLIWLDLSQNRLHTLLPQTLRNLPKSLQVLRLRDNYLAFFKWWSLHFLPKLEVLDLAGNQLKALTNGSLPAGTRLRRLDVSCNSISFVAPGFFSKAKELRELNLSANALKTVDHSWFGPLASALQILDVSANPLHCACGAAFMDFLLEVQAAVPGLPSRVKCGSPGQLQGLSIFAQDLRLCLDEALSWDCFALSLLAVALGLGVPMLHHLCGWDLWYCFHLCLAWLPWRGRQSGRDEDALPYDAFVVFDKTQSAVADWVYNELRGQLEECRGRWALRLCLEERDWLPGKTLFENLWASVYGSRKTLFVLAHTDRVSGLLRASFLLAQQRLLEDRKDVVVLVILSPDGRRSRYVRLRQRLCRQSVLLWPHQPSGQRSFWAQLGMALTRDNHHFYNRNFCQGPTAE
Excerpt: (§1) Human peripheral blood mononuclear cells (PBMCs) consist of lymphocytes, monocytes and dendritic cells that express TLR7, TLR8 and TLR9. These cells respond to TLR7, TLR8 and TLR9 ligand stimulation and produce cytokines and chemokines in vitro and in vivo. Human PBMCs are therefore suitable to be used in a cell-based assay to assess the in vitro potency of a TLR 7, 8, and/or 9 antagonist. The result is expected to be more translatable to the pharmacodynamics response in vivo than cell line-based assays.
(§2) Cryopreserved human PBMCs from healthy donors were thawed and resuspended in RPMI-1640 media with L-glutamine (Corning) supplemented with 10% Fetal Bovine Serum (Hyclone) and 1X Penicillin-Streptomycin (Corning). After counting, the cell density was adjusted to 2 million cells/ml and incubated for 1 hour at 37° C., 5% CO2 for recovery. Following the recovery, the cells were plated by adding 50p per well (100,000 cells) to 384-well cell culture plates (Greiner) containing 250nl of test antagonists in 100% DMSO per well, in a 10 points dose response in quadruplicates. PBMCs were incubated in the presence of test antagonists for one hour at 37° C., 5% CO2 before being stimulated with a TLR7 or TLR9 agonist. GS-986 (Gilead Sciences) was used as the TLR7 agonist at a final concentration of 400 nM. ODN-2216 (InvivoGen) was used as the TLR9 agonist at a final concentration of 3μM. PBMCs were incubated in the presence of the test antagonist and the TLR7 (or TLR9) agonist for an additional 6 hours at 37° C., 5% CO2. At the end of the incubation, the cell culture plates were centrifuged at 500 g for 5 min, and the cell culture supernatant was collected. The level of cytokines (IL-6 and IFNα) in the supernatant was measured by electrochemiluminescence immunoassays (Mesoscale Discovery) following manufacturer's recommended protocols. The level of cytokine measured was plotted against the test antagonist concentration and fitted to a sigmoidal function to determine the EC50, which are shown below in Table 26.

TLR7 = target: T2, TLR7 (Homo sapiens, UniProt Q9NYK1); test: Human PBMC cell-based assay, TLR7 agonist GS-986 stimulation, cytokine (IL-6 and IFNα) readout; conditions: human PBMCs, GS-986 400 nM, 6 hours; Table 26; read-out: TLR-7 EC50
T2 construct: lymphocytes, monocytes and dendritic cells that express TLR7, TLR8 and TLR9; endogenous in cells; host or cells: human PBMCs from healthy donors
T2 sequence (Q9NYK1 27-1049): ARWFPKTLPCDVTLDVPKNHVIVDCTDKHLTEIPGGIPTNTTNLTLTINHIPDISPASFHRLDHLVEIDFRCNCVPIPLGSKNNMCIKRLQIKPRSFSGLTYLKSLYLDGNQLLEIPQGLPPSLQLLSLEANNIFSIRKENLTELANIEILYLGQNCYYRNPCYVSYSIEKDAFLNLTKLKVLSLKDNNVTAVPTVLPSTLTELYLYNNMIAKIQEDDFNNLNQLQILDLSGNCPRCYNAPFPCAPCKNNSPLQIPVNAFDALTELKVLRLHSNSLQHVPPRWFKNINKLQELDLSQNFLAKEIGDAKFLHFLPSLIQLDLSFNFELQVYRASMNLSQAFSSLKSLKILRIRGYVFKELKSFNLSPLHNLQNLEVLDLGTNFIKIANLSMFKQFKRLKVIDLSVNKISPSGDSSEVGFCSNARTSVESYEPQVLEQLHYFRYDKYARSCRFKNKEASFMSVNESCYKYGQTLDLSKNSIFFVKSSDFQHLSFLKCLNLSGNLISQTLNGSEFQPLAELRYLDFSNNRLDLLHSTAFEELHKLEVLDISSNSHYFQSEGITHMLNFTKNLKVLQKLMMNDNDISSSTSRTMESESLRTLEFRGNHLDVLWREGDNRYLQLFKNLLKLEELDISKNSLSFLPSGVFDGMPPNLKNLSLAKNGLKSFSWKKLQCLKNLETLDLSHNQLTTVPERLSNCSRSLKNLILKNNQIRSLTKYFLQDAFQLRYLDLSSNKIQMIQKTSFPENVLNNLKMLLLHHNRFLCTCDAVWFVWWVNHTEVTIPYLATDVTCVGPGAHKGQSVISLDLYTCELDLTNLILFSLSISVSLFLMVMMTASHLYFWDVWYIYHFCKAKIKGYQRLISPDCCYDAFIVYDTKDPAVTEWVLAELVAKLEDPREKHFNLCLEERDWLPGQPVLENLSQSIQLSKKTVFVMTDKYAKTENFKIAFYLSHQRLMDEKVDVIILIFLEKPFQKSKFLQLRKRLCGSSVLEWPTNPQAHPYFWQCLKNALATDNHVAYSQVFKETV
Excerpt: as §1, §2

Row | Compound | EC50 (TLR9) | EC50 (TLR7)
1 | Cc1cc(-c2[nH]c3cc(-c4ccc(N5CCN(C(=O)[C@@H]6CCCN6)CC5)nc4)ccc3c2C)cc(C)n1 [Example 135] | 41.3 nM | 73.9 nM
2 | Cc1cc(-c2[nH]c3cc(-c4cnc5c(c4)ncn5C)ccc3c2C)cc(C)n1 [Example 46] | 1070 nM | 183 nM
3 | Cc1cc(-c2[nH]c3cc(-c4ccc(C(=O)N5CCNCC5)cc4)ccc3c2C)cc(C)n1 [Example 8] | 84.4 nM | 84.3 nM
4 | Cc1cc(-c2[nH]c3cc(-c4ccc5[nH]cnc5c4)ccc3c2C)cc(C)n1 [Example 44] | 242 nM | 121 nM
5 | Cc1cc(-c2[nH]c3cc(C(=O)NC4CCNCC4)ccc3c2C)cc(C)n1 [Example 178, 2-(2,6-dimethylpyridin-4-yl)-3-methyl-N-(piperidin-4-yl)-1H-indole-6-carboxamide] | 1880 nM | > 1000 nM
6 | Cc1cc(-c2[nH]c3cc(-c4cccc5c4CNC5)ccc3c2C)cc(C)n1 [Example 19] | 109 nM | 163 nM
7 | Cc1cc(-c2[nH]c3cc(-c4ccc5c(c4)CC(N)C5)ccc3c2C)cc(C)n1 (stereo not drawn) [Example 20] | 88.5 nM | 119 nM
8 | Cc1cc(-c2[nH]c3cc(-c4ccc(N5CCN(C(=O)[C@H]6CCCN6)CC5)nc4)ccc3c2C)cc(C)n1 [Example 134, (R)-2-(2,6-dimethylpyridin-4-yl)-3-methyl-6-(6-(4-prolylpiperazin-1-yl)pyridin-3-yl)-1H-indole] | 58.9 nM | 41.9 nM
9 | Cc1cc(-c2[nH]c3cc(-c4ccc(N5CC[C@@H](NCCO)C5)nc4)ccc3c2C)cc(C)n1 [Example 130, (R)-2-((1-(5-(2-(2,6-dimethylpyridin-4-yl)-3-methyl-1H-indol-6-yl)pyridin-2-yl)pyrrolidin-3-yl)amino)ethan-1-ol] | 18.2 nM | 16.3 nM
10 | Cc1c(-c2cc(C#N)c(=O)n(C)c2)[nH]c2cc(-c3ccc(N4CCNCC4)nc3)ccc12 [Example 93] | 909 nM | 205 nM
11 | Cc1cc(-c2[nH]c3cc(-c4ccc(N5CC[N+](CCN(C)C)(CCN(C)C)CC5)nc4)ccc3c2C)cc(C)n1 [Example 115, 1,1-bis(2-(dimethylamino)ethyl)-4-(5-(2-(2,6-dimethylpyridin-4-yl)-3-methyl-1H-indol-6-yl)pyridin-2-yl)piperazin-1-ium] | 189 nM | 394 nM
12 | Cc1cc(-c2[nH]c3cc(-c4cccc(C(=O)N5CC6CNCC6C5)c4)ccc3c2C)cc(C)n1 (stereo not drawn) [Example 123] | 274 nM | 374 nM
13 | Cc1nn(C)cc1-c1[nH]c2cc(-c3ccc(N4CCNCC4)nc3)ccc2c1C [Example 88] | 2190 nM | 317 nM
14 | Cc1cc(-c2[nH]c3cc(-c4cnn(CC5CCNCC5)c4)ccc3c2C)cc(C)n1 [Example 183] | 785 nM | 323 nM
15 | Cc1c(-c2cn(C)c(=O)c3ccccc23)[nH]c2cc(-c3ccc(N4CCNCC4)nc3)ccc12 [Example 92] | 1680 nM | 664 nM
16 | Cc1cc(-c2[nH]c3cc(-c4ccc5c(c4)CCCN5)ccc3c2C)cc(C)n1 [Example 43] | 1340 nM | 
17 | Cc1c(-c2cc(C)c3ncnn3c2)[nH]c2cc(-c3nc4ccccc4[nH]3)ccc12 [Example 193, 6-[6-(1H-benzimidazol-2-yl)-3-methyl-1H-indol-2-yl]-8-methyl-[1,2,4]triazolo[1,5-a]pyridine] |  | 483 nM
18 | Cc1c(-c2cc(C)c3ncnn3c2)[nH]c2cc(-c3nc4ccccc4n3C)ccc12 [Example 194] |  | 631 nM

The next lines start with the values.

Row | EC50 (TLR9) | EC50 (TLR7) | Compound
19 |  | 1.01 nM | Cc1c(-c2cc(C)c3ncnn3c2)[nH]c2cc(-c3ccc4c(c3)ncn4C3CC4CC3CN4)ccc12 (stereo not drawn) [Example 176]
20 | 69.6 nM | 12.9 nM | Cc1cc(-c2[nH]c3cc(-c4ccc(N5CCN(C)CC5)nc4)ccc3c2C)cc(C)n1 [Example 41, 2-(2,6-dimethylpyridin-4-yl)-3-methyl-6-(6-(4-methylpiperazin-1-yl)pyridin-3-yl)-1H-indole]
21 | 84.5 nM | 15.8 nM | Cc1cc(-c2[nH]c3cc(-c4cnn(C5CCNCC5)c4)ccc3c2C)cc(C)n1 [Example 6]
22 | 39.1 nM | 5.9 nM | Cc1cc(-c2[nH]c3cc(-c4ccc(N5CCC[C@@H](N)C5)nc4)ccc3c2C)cc(C)n1 [Example 25]
23 | 124 nM | 3.4 nM | Cc1cc(-c2[nH]c3cc(-c4ccc(N5CCN(CCO)CC5)nc4)ccc3c2C2CC2)cc(C)n1 [Example 143]
24 | 58.7 nM | 5.8 nM | Cc1cc(-c2[nH]c3cc(-c4ccc(N5CCN(CC(C)O)CC5)nc4)ccc3c2C)cc(C)n1 (stereo not drawn) [Example 118]
25 |  | 0.11 nM | Cc1c(-c2cc(C)c3ncnn3c2)[nH]c2cc(-c3ccc4nc([C@H]5N[C@@H]6CC[C@H]5C6)[nH]c4c3)ccc12 [Example 171]
26 |  | 1.66 nM | CCc1c(-c2cc(C)c3ncnn3c2)[nH]c2cc(-c3ccc(N4CCN(CC(N)=O)CC4)nc3)ccc12 [Example 177, 2-(4-(5-(3-ethyl-2-(8-methyl-[1,2,4]triazolo[1,5-a]pyridin-6-yl)-1H-indol-6-yl)pyridin-2-yl)piperazin-1-yl)acetamide]
27 |  | 1.37 nM | Cc1c(-c2cc(C)c3ncnn3c2)[nH]c2cc(-c3cnc4c(c3)CNCC4)ccc12 [Example 170]
28 |  | 4.48 nM | Cc1cc(-c2[nH]c3cc(-c4ccc5nc([C@@H]6N[C@H]7CC[C@@H]6C7)[nH]c5c4)ccc3c2C)cc(C)n1 [Example 195, 2-[(1S,3R,4R)-2-azabicyclo[2.2.1]heptan-3-yl]-6-[2-(2,6-dimethyl-4-pyridyl)-3-methyl-1H-indol-6-yl]-1H-benzimidazole]
